# Laboratory results published in ChEMBL document CHEMBL5576083, “Structure-Based Design and Synthesis of Covalent Inhibitors for Deubiquitinase and Acetyltransferase ChlaDUB1 of Chlamydia trachomatis” (J Med Chem, 2024).
# The source made the active and inactive calls. No cut-off for these calls is given here.
# Columns and labels:
# HEp-2 = assay: Cytotoxicity against human HEp-2 cells at 4 to 128 ug/ml incubated for 20 hrs by […] assay; assay type: toxicity, cell-based; details: hep-2, 20 h, dose 4-128 µg/ml
# HeLa = assay: Cytotoxicity against human HeLa cells at 128 ug/ml incubated for 20 hrs by […] assay; assay type: functional, cell-based; details: dose 128.0 µg/ml
# Chlamydia trachomatis [1] = assay: Antimicrobial activity against Chlamydia trachomatis serovar L2 infected in human HeLa cells assessed as reduction in inclusion area at 6.25 ug/ml measured after 24 hrs of post-infection by microscopic analysis; assay type: functional; details: dose 6.25 µg/ml
# [2] = target: T1, Ubiquitin thioesterase OTU1 (Homo sapiens) (UniProt Q5VVQ6); assay: Inhibition of GST-tagged human OTUD2 using Ub-AMC as substrate at 40 uM preincubated for 1 hr followed by substrate addition by plate reader analysis
# T1 sequence (whole entry): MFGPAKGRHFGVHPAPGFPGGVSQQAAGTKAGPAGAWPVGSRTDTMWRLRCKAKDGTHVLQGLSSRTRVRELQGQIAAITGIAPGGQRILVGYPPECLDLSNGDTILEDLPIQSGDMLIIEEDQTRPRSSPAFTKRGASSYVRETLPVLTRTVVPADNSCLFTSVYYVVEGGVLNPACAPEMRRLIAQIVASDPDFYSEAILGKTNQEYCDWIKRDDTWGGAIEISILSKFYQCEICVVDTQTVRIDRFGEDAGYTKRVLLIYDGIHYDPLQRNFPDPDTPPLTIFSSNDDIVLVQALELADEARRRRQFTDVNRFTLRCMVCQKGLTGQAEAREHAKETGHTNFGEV
# [3] = target: Ubiquitin carboxyl-terminal hydrolase 14 (Homo sapiens) (UniProt P54578); assay: Inhibition of human USP14 using Ub-Rh110Gly as fluorogenic substrate at 40 uM preincubated for 1 hr followed by substrate addition by plate reader analysis
# Chlamydia trachomatis [4] = assay: Anti-chlamydial activity against Chlamydia trachomatis serovar L2 infected in human HEp-2 cells assessed as fold change in inhibition of chlamydial inclusion incubated for 24 hrs by Alexa488/DAPI staining based immunofluorescence assay relative to doxycycline; assay type: functional
# [5] = Covalent inhibition of C-terminal 6His-tagged Chlamydia trachomatis DUB1 (130 to 401 residues) expressed in Escherichia coli Rosetta 2 (DE3) cells using Ub-Rh110Gly as fluorogenic substrate preincubated for 1 hr followed by substrate addition by plate reader analysis
# Chlamydia trachomatis [6] = assay: Anti-chlamydial activity against Chlamydia trachomatis serovar L2 infected in human HEp-2 cells assessed as inhibition of chlamydial inclusion incubated for 24 hrs by Alexa488/DAPI staining based immunofluorescence assay; assay type: functional, organism-based; details: serovar L2, HEp-2, 24 h
# Chlamydia trachomatis [7] = assay: Antimicrobial activity against Chlamydia trachomatis serovar L2 infected in human HeLa cells assessed as reduction in inclusion circumference at 6.25 ug/ml measured after 24 hrs of post-infection by microscopic analysis (reference value: 31.72 micrometer); assay type: functional; details: dose 6.25 µg/ml
# Chlamydia trachomatis [8] = assay: Antimicrobial activity against Chlamydia trachomatis serovar L2 infected in human HeLa cells assessed as reduction in microbial progeny at 6.25 ug/ml measured after 48 hrs of post-infection by immunofluorescence analysis; assay type: functional; parameters: scale not given: the % may be the effect or the level left; details: dose 6.25 µg/ml
# [9] = Inhibition of Chlamydia trachomatis DUB2 expressed in Escherichia coli Rosetta 2 (DE3) cells using Ub-Rh110Gly as fluorogenic substrate preincubated for 1 hr followed by substrate addition by plate reader analysis
# Chlamydia trachomatis [10] = assay: Antimicrobial activity against Chlamydia trachomatis serovar L2 infected in human HeLa cells assessed as reduction in microbial progeny at 3.13 ug/ml measured after 24 hrs of post-infection by immunofluorescence analysis; assay type: functional; parameters: scale not given: the % may be the effect or the level left; details: dose 3.13 µg/ml
# [11] = target: T2, Ubiquitin carboxyl-terminal hydrolase 25 (Homo sapiens) (UniProt Q9UHP3); assay: Inhibition of human USP25 (765 to 1055 residues) expressed in Escherichia coli Rosetta 2 (DE3) cells using Ub-Rh110Gly as fluorogenic substrate at 40 uM preincubated for 1 hr followed by substrate addition by plate reader analysis
# T2 sequence (whole entry): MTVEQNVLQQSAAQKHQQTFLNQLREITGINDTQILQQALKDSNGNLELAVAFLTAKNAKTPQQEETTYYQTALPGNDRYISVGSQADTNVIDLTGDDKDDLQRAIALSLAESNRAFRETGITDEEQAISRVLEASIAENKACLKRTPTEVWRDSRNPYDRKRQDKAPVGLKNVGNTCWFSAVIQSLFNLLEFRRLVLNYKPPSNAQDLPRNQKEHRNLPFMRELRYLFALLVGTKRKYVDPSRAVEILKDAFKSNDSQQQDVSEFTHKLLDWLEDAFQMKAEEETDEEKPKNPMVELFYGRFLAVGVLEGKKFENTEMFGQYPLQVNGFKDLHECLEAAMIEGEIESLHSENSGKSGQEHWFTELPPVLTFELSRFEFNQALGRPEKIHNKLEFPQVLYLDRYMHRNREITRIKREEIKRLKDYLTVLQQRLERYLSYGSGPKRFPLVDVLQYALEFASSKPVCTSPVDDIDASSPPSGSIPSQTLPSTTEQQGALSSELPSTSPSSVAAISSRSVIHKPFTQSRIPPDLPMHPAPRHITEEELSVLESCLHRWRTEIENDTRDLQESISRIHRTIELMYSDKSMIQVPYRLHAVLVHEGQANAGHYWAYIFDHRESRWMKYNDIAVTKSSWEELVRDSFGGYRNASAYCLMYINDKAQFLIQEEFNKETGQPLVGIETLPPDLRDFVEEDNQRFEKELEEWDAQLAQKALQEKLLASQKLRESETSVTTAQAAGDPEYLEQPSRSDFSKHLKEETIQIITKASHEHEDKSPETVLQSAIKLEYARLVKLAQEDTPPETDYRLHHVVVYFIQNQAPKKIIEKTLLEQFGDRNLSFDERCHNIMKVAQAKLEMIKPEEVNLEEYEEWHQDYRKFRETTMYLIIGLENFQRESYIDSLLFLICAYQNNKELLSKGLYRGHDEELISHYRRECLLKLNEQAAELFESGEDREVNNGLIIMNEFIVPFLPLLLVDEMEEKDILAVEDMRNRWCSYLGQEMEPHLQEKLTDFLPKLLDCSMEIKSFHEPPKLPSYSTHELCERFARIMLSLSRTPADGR
# Sequence of Ubiquitin carboxyl-terminal hydrolase 14 (Homo sapiens) (P54578 whole entry): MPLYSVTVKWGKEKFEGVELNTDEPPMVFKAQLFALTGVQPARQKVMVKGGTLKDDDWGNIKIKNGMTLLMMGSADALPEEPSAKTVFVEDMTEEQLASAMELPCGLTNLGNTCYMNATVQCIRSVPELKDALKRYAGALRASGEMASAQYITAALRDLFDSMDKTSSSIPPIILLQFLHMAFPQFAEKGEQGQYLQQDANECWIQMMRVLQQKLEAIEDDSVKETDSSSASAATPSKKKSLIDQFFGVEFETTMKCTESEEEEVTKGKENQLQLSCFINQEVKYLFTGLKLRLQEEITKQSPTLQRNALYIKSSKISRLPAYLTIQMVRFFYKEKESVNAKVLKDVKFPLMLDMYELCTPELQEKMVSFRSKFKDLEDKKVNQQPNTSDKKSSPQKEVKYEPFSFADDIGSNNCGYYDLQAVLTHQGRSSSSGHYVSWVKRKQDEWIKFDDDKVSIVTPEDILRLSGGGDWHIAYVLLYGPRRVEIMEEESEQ
smiles,measurement,setting,value
N#Cc1ncc(C(=O)NCc2ccc(C(=O)NC34CC5CC(CC(C5)C3)C4)cc2)cn1,Activity,HEp-2,Toxic
same,Activity,HeLa,inactive
same,Activity,Chlamydia trachomatis [1],47.16 um2
same,inhibition,[2],inactive
same,inhibition,[3],inactive
same,fold change (FC),Chlamydia trachomatis [4],200
same,IC50,[5],7.7 µM
same,pIC50,[5],5.11
same,IC50,Chlamydia trachomatis [6],8.52 µg/mL
same,Activity,Chlamydia trachomatis [7],25.98 um
same,Activity,Chlamydia trachomatis [8],41%
same,IC50,[9],15.7 µM
same,Activity,Chlamydia trachomatis [10],45.5%
same,inhibition,[11],inactive
